# Literature values as cited in patent US20230414606A1 (Lake O'Hara LLC, priority 2022, published 2023).
# Key:
# CYP3A4 = CYP3A4 (Homo sapiens, UniProt P08684); conditions: based on the literature, model input
# [1] = previous studies, no patients with BMI>35 kg/m2
# [2] = based on the literature, model input
# CYP3A4, sequence (P08684 whole entry): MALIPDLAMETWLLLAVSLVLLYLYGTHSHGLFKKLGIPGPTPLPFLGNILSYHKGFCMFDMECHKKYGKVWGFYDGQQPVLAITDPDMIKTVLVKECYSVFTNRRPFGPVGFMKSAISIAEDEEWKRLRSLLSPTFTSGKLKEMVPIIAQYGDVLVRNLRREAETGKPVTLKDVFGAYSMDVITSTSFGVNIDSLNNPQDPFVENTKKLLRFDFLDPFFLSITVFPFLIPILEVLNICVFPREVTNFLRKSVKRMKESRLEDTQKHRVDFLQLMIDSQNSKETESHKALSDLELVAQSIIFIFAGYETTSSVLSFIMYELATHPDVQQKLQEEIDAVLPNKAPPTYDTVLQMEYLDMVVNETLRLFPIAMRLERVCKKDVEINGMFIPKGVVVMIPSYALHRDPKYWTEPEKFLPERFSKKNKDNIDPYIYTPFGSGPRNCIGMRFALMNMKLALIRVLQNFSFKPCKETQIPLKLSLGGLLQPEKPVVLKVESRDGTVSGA
structure (smiles),measurement,setting,value
"O=c1ccc2ccc(OCCCCN3CCN(c4cccc5sccc45)CC3)cc2[nH]1 [brexpiprazole, 7-14-14-(1-Benzothiophen-4-yl)piperazin-1-yllbutoxylquinolin-2(1H)-one]",brexpiprazole clearance due to CYP3A4,CYP3A4,46.7%
same,decrease of baseline clearance by CYP2D6 PM status,CYP2D6; CYP2D6 PM,~30%
same,brexpiprazole clearance due to CYP2D6,CYP2D6; [2],43.3%
same,brexpiprazole clearance due to other routes,[2],10%
same,renal clearance,"model assumption, clearance entirely in the liver",~1%
same,effect of weight on the pharmacokinetics of brexpiprazole,[1],less than 20%
